Assay results reported in publication PMC6836573, “Mitochondria-targeting fluorescent molecules for high efficiency cancer growth inhibition and imaging” (Chemical Science, 2019).
Entries after “also recorded” stand apart in the source; their conditions may differ.

Key:
bladder cancer T24 cell = experiment: Cytotoxicity assay (direct cell counting), T24; assay type: cell-based; details: for IC50: T24 cells, 3 days incubation, viable cells counted
Procedure: (§1) Cell culture, imaging, and cytotoxicity assay
(§2) RPMI-1640 medium. NIH/3T3 was cultured in DMEM medium. A549 was cultured in F-12K medium. T24 were cultured in McCoy's 5A medium. All culture mediums were supplemented with 10% fetal bovine serum. The cells were incubated at 37 °C in an atmosphere containing 5% CO 2. […]
(§3) Cytotoxicity assay. All test cell lines were incubated in 96-well plates overnight at a density of 3000 cells/well. The culture medium was replaced with 200 μL of culture medium, into which the testing compound was dispersed at various concentrations (1.95 - 500 μM). After incubating for 3 days, the viable cell numbers were checked and directly counted under microscopy (10X). A minimum of 1mm×1mm area was counted from each of at least three widely separated regions of cell culture. The cell proliferation rate was calculated by the following formula: cell proliferation rate (%) = (average cell number of sample wells / average cell number of control wells) ×100%.
(§4) The intact culture medium was evaluated as a control. […]

NSCLC H838 cell = experiment: Cytotoxicity assay (direct cell counting), H838; assay type: cell-based; details: H838 cells, 3 days incubation, viable cells counted
Procedure: as §1, §2, §3, §4
All animal experiments were performed in compliance with the Guidelines for the Care and Use of Research Animals as established by the Stanford University Animal Studies Committee. Female athymic nude mice (nu/nu) from 4−6 weeks old were obtained from Charles River Laboratories (Boston, MA, USA) and kept under sterile conditions. 5 × 106 human lung adenocarcinoma

[1] = Cytotoxicity assay (direct cell counting), NIH-3T3; assay type: cell-based; details: mouse; NIH-3T3 normal cells; 3 days incubation, viable cells counted
Procedure: as §1, §2, §3, §4

[2] = Relative fluorescence quantum yield; assay type: physicochemical; details: EtOH, relative to rhodamine 6G, excited at 425 nm
Procedure: Quantum yield. The fluorescence quantum yields of F16s were determined according to the […]
Where Φ is the quantum yield, F is the integrated area under the corrected emission spectrum, and A is the absorbance at the excitation wavelength; the subscripts x and s refer to F16s and the standard, respectively. Rhodamine 6G (ΦF = 95%) in ethanol was used as the standard. All F16s and Rhodamine 6G were dissolved in ethanol in 5 different concentrations with the absorbance lower than 0.1 at 425nm. The corresponding 5 different fluorescences of F16s and Rhodamine 6G were excited at 425 nm and the emission spectra from 450 nm to 650 nm were obtained for the following integrated area measurement. All data were analyzed using Origin Pro 9.0 software (OriginLab, Northampton, Massachusetts, USA) to get the F16s final quantum yield. […]

[3] = Photostability under continuous excitation; assay type: physicochemical; details: water, 10 μM, continuously excited for 50 min
Procedure: bandpass filter (MF559-34, Thorlabs, Newton, New Jersey, USA) was used to excite Mitotracker
Red. All the dyes were dissolved in water at a 10 µM concentration in 700 µL micro quartz cuvettes (10 mm, Sigma-Aldrich, St. Louis, MO, USA). They were continuously excited for 50 mins.
During this period, the fluorescence intensity was measured every 5 mins at 525 nm (F16s, Rhodamine 6G, Mitotracker Green) or 600 nm (Mitotracker Red). Relative fluorescence intensity change was monitored over time. […]

[4] = Absorption and emission spectra in water; assay type: physicochemical; details: 31 μM
[5] = parameters: method as in PMID 19072739, PMID 10656430, PMID 12154051; details: study halted at Phase II; cited from earlier work
[6] = parameters: method as in earlier work; details: in ethanol, used as the standard; ref 2 of the supplement; cited from earlier work

SMILES | IC50 (bladder cancer T24 cell; Homo sapiens, T-24, 72 h) [µM] | IC50 (NSCLC H838 cell; Homo sapiens, NCI-H838, 72 h) [µM] | IC50 at 3 days [1] [µM] | Quantum Yield [2] [%] | other results
Cn1cc(/C=C/c2cc[n+](C)cc2)c2cc(F)ccc21 [1-MeFF16] | 21.7 | 19.1 | 104 | 13.6 | Quantum Yield ([2]; listed as 1): around 12%; photostability ([3]; listed as 1): bleached quite easily; also recorded: dramatically decreased photostability
C[n+]1ccc(/C=C/c2c(Cl)[nH]c3ccccc23)cc1 [2-ClF16] | 54.7 | 25.7 | 13.8 | 8.6 | Quantum Yield ([2]; listed as 8): under 10%; photostability ([3]; listed as 8): bleached quite easily; also recorded: poor photostability
Cc1ccc2[nH]c(C)c(/C=C/c3cc[n+](C)cc3)c2c1 [2-Me-5-MeF16] | 68.8 | 17.3 | 161 | 18.1 | Quantum Yield ([2]; listed as 9): around 20%; photostability ([3]; listed as 9): bleached quite easily; also recorded: poor photostability; absorption peak [4]: about 450 nm
C[n+]1ccc(/C=C/c2c(-c3ccccc3)[nH]c3ccccc23)cc1 [2-PhF16] | 4.02 | 3.74 | 0.326 | 5.8 | Quantum Yield ([2]; listed as 5): under 10%; absorption peak [4]: about 450 nm
C[n+]1ccc(/C=C/c2c[nH]c3ccc(Br)cc23)cc1 [5-BrF16] | 1.84 | 1.2 | 11.6 | 49.1 | 
C[n+]1ccc(/C=C/c2c[nH]c3ccc(C#N)cc23)cc1 [5-CNF16] | 316 | 20 |  | 9.7 | Quantum Yield ([2]; listed as 6): under 10%
C[n+]1ccc(/C=C/c2c[nH]c3c(F)cc(I)cc23)cc1 [5-I-7-FF16] | 3.83 | 1.29 | 14.2 | 4.5 | Quantum Yield ([2]; listed as 10): under 10%
C[n+]1ccc(/C=C/c2c[nH]c3ccccc23)cc1 [F16, reference compound] |  |  |  |  | IC50 (bladder cancer T24 cell): 18.8 µM; IC50 (NSCLC H838 cell): 46.6 µM
C[n+]1ccc(/C=C/c2c[nH]c3ccc(F)cc23)cc1 [FF16] | 6.26 | 3.63 | 75.1 | 18.5 | selectivity indices (bladder cancer T24 cell; 3T3 versus T24 and H838): > 10; Quantum Yield ([2]; listed as 7): around 20%
CCn1c(=O)/c(=C2\Sc3ccccc3N2C)s/c1=C\c1cccc[n+]1CC.[Cl-] [MKT-077] |  |  |  |  | anti-tumor effect in clinical trial [5]: limited anti-tumor effect; nephrotoxicity in clinical trial [5]: mild nephrotoxicity
C[n+]1ccc(/C=C/c2c[nH]c3ccc([N+](=O)[O-])cc23)cc1 [NO2F16] | 73.8 | 4.7 | 86 | 1.24 | Quantum Yield ([2]; listed as 11): under 10%
C[n+]1ccc(/C=C/c2c[nH]c3c2ccc2ccccc23)cc1 [PhF16] | 1.02 | 1.5 | 0.28 | 12.2 | Quantum Yield ([2]; listed as 2): around 12%
CC/N=c1\cc2oc3cc(NCC)c(C)cc3c(-c3ccccc3C(=O)OCC)c-2cc1C [rhodamine 6G] |  |  |  |  | Quantum Yield of the standard [6]: 95%
